The ΔTm is the change in melting temperature against a reference sample.

Assay [1] has as its system UTR-1 (RNA, G4) GCGGCGGCGGAGG
Description: FRET melting. The conditions noted are these: 60 mM K+; K-cacodylate pH 7.4; 0.2 μM RNA, 1 μM compound; SD ≤ 0.2.

In assay [2] the test system is KRAS32R (DNA, G4) AGGGCGGTGTGGGAAGAGGGAAGAGGGGGAGG
Description: FRET melting. The conditions noted are these: 60 mM K+; K-cacodylate pH 7.4; 0.2 μM DNA, 1 μM compound; SD ≤ 0.2.

Assay [3] has as its system 26ds (ds26) (DNA, duplex) CAATCGGATCGAATTCGATCCGATTG
Description: spectrofluorimetric titration, one-site Hill slope fit. The following applies: 60 mM K+, K-cacodylate pH 7.4, 25 °C, 1 μM compound, apparent, SD ≤ 0.2 × 10^6.

Another assay deals with KRAS mRNA in SW620 cells. Description: KRAS mRNA steady-state levels, Taqman real-time RT-PCR, SW620. The assay is classed as cell-based, human. The conditions noted are these: equitoxic (IC50) concentrations, 72 h. As for the experimental part:
The effects of compounds on KRAS transcription in colon cancer cells (HCT116 and SW620) were evaluated by quantifying KRAS mRNA steady-state levels using Taqman real-time RT-PCR.
(a) KRAS mRNA steady-state expression was evaluated by Taqman Real-time RT-PCR using specific Taqman Assays for KRAS and β-Actin for normalization. KRAS mRNA steady-state expression levels were calculated by the ΔΔCt method, using DMSO (vehicle control) for calibration; and (b) KRAS protein steady-state expression evaluated by immunoblot relative to control (DMSO vehicle) Results are expressed as mean ± SEM of at least three independent experiments; *p < 0.05 and §p < 0.01 from DMSO (vehicle control). […]
Taqman Real-time PCR reactions were performed using 1.5 µg of total RNA, using High Capacity RNA to cDNA kit, according to the manufacturer`s instruction. […] The comparative threshold cycle method was used to calculate the amplification factor, where the threshold cycle (Ct) is defined as the cycle number at which the fluorescence passes the fixed threshold intensity level. KRAS expression levels in different samples were calculated on the basis of ΔΔCt method. […]
Hoechst labeling of cells was used to detect apoptotic nuclei by evaluation of nuclear morphology under fluorescence microscopy. […] Fluorescent nuclei were scored and categorized according to the condensation and staining characteristics of […]
In general terms: Real-time PCR tracks product formation cycle by cycle.

The subject of another assay is KRAS21R G4. Description: Binding stoichiometry, Job plot (continuous variation). Details: species or system human. The conditions noted are these: [3e] + [G4] = 4 μM, 25°C. As for the experimental part: In order to determine the number of ligand-binding sites, continuous variation analysis (Job plot)[27] of 3e with KRAS21R was performed. Plotting of fluorescence as a function of the mole fraction of 3e (χ) gave linear dependences at high and low molar fractions (Figure S9b).
The binding stoichiometry of indolo[3,2-c]quinoline derivative 3e with KRAS21R G4 was obtained by spectrophotofluorimetry at 25°C using the Job method of continuous variation. A previously annealed G4 stock solution at 25 μM (heating to 95°C for 10 min, followed by slow cooling to RT) of the non-labelled oligonucleotide sequences KRAS21R in K-cacodylate buffer pH 7.4 (containing 60 mM K^+) was used. Test compound was prepared at 1 mM concentration in HPLC-grade water (10% DMSO) stock solution. The rest of the dilutions were performed using K-cacodylate buffer. Total concentration of ligand and G4 in the solution was kept constant ([3e] + [G4] = 4 μM) as previously described.
Figure S9 | a) CD titration spectra of the KRAS21R and induced by titration with 3e in K-cacodylate buffer pH 7.4, containing 60 mM K+ at 25 °C. Solid black line – Pure G4 DNA at […]
sequentially from the top around 260 nm; b) Job Plot of 3e in complex with KRAS21R G4 in K-cacodylate buffer pH 7.4, containing 60 mM K+, at 25 °C. The sum of the concentrations of 3e and G4 was kept constant at 4 µM.
Figure S10. […]

Take `CCN(CC)CCCNc1ccc2c(c1)c1[nH]c3ccccc3c1c[n+]2C` [2d]: the shift in melting temperature (ΔTm) in assay [1] was 5.1 °C; in assay [2], 10.7 °C. For the same compound, in assay [3] (Hill 1.5), the Ka was 2.8e+06 M⁻¹. The “Reduction of KRAS mRNA steady-state levels, SW620” value in the assay on KRAS mRNA in SW620 cells turned out to be 90%.

For the compound `CCN(CC)CCCNc1ccc2[nH]c3c(c[n+](C)c4ccc(NCCCN(CC)CC)cc34)c2c1.[Cl-]` [3d], the “Reduction of KRAS mRNA steady-state levels, SW620” value with KRAS mRNA in SW620 cells worked out at 25%.

On to `CCN(CC)CCCNc1ccc2c(c1)[nH]c1c2c[n+](C)c2ccc(NCCCN(CC)CC)cc12.[Cl-]` [3e], for which the values for the shift in melting temperature (ΔTm) in assay [1] and in assay [2] were 15.7 °C and 17.0 °C, respectively. In addition, in assay [3] (Hill 2.5), the Ka was found to be 3.2e+06 M⁻¹. Also, in the assay with KRAS21R G4, the “Job plot molar fraction at intersection” value stood at 0.61.

The record behind these values is article PMC5382548 (Scientific Reports, 2015).
